Common to all, as to test: inhibition of tumour cell growth, NCI panel, 48 h
For test [1], the system named is SR leukemia.
Test [2] deals with 786-0 renal.
Test [3] concerns LOX IMVI melanoma.
Test [4] relates to CCRF-CEM leukemia.
In test [5] the test system is MDA-MB-435.
Test [6] deals with SF-268 CNS.
The test system of test [7] is SW-620 colon.
Test [8] concerns OVCAR-5 ovarian.
In test [9] the test system is MDA-N.

The source of these data is PubChem BioAssay (NCI).

Molecules are shown by their SMILES.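 Interpolation was linear, between the two tested concentrations surrounding the appropriate level; five concentrations were tested over 48 hours in 96-well plates. Here, GI50 denotes the concentration required for 50% inhibition of growth. TGI denotes the concentration required for complete inhibition of growth.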 Bounds are passed on as bounds.

Consider `O=S(Nc1ccccc1)c1ccc(N2CCOCC2)cc1` (stereo not given), for which the TGI in [1], in test [2], in test [3], in [4], in test [5] and in test [6] was greater than 100 µM each time. This compound yielded a TGI in test [7] greater than 100 µM.
Consider `O=C(N/N=C/C=C/c1ccc([N+](=O)[O-])o1)c1cc2ccccc2cc1O`, for which the GI50 in [1] was 0.308 µM; in test [3], 0.356 µM; in [5], 0.506 µM; in test [6] it was 1.43 µM; in [8], 3.35 µM; in test [7], 1.05 µM. For the same compound, the TGI in [1] is 7.69 µM; in [3] it was 1.58 µM; in test [5], 2.38 µM; in [6], 7.43 µM; in test [8] it was 10.7 µM; in test [7], 3.05 µM.
`Cc1ccc(S(=O)(=O)n2c3ccc(Br)cc3c3nc4ccccc4nc32)cc1`: the TGI in test [2], in test [3], in test [4], in test [5], in test [6] and in test [8] was greater than 100 µM in each case. In addition, the TGI in [7] and in test [9] was greater than 100 µM in each case.
`CC1CCCC2(CC[N+](C)(CCC[N+](C)(C)C)CC2)C1` (stereo not given): the TGI in [1], in [2], in [3], in test [5], in [6] and in test [8] was greater than 100 µM throughout. For the same compound, the TGI in test [7] and in test [9] was greater than 100 µM throughout.
With `COc1ccc(CC(N)c2ccc(OC)cc2)cc1` (stereo not given), the TGI in test [2], in [3], in [4], in test [5], in test [6] and in test [8] was greater than 100 µM throughout. Also, the TGI in [7] and in [9] was greater than 100 µM each time.
Turning to `CCOP(=O)(/C=C\n1cc(C)c(=O)[nH]c1=O)OCC`, the TGI in test [2], in test [3], in [4], in test [5], in test [6] and in test [8] was greater than 100 µM in each case. Moreover, the TGI in test [7] and in [9] was greater than 100 µM each time.
In the case of `CCOc1ccc(N/C(=C(/C(Cl)=C(/Cl)N(CC)CC)[N+](=O)[O-])n2nnc3ccccc32)cc1`, the TGI in [2] is 33.2 µM; in [4], greater than 100 µM; in test [5] it was 33.9 µM; in test [6] it was 36.2 µM; in [8], greater than 100 µM; in test [7], 27.3 µM. Moreover, in test [9], the TGI is 70.4 µM.
`Cc1ccc(/C(O)=C/c2nc3ccccc3sc2=O)c(C)c1`: the TGI is 75.8 µM in test [1]; greater than 100 µM in test [2]; greater than 100 µM in test [3]; greater than 100 µM in [4]; greater than 100 µM in test [5]; greater than 100 µM in test [6]. Further, the TGI in test [8] and in test [9] was greater than 100 µM each time.
Turning to `NC(=O)NNc1nc(-c2ccccc2)cs1`, the TGI in [1], in test [2], in test [3], in [4], in [5] and in test [6] was greater than 100 µM each time. The TGI in test [8] and in test [7] was greater than 100 µM in each case.
`Cc1cc(C)nc(SC2=C(Nc3ccc(C)c(Cl)c3)C(=O)N(Cc3ccccc3)C2=O)n1`: the GI50 in test [3], in test [5], in test [6], in test [8] and in test [7] was greater than 160 µM in each case. Moreover, the TGI in test [3], in [5], in test [6], in test [8] and in test [7] was greater than 160 µM in each case.
For `CC(C)=NN/C(=N\S(=O)(=O)c1ccc(Oc2cccc(Cl)c2C#N)cc1)Nc1ccc(Cl)cc1`, the TGI in test [2], in test [3], in test [4], in test [5], in [6] and in test [8] was greater than 100 µM throughout. The TGI in test [7] and in test [9] was greater than 100 µM each time.
`Cc1cc(S(=O)(=O)N/C(=C(\C#N)C(=O)c2ccc(Cl)cc2)[n+]2ccc(N(C)C)cc2)c([S-])cc1Cl`: the TGI in test [1], in test [2], in test [4], in test [5], in test [6] and in test [8] was greater than 100 µM each time. Moreover, the TGI in [9] is greater than 100 µM.
In the case of `CO/N=C1\CC(NC(=O)CNC(=O)OC(C)(C)C)c2ccsc21` (stereo not given), the TGI in test [1], in test [3], in [4], in test [5], in test [6] and in test [8] was greater than 100 µM in each case. Also, the TGI in test [7] and in [9] was greater than 100 µM throughout.
As to `Cc1ccc2c(=O)cc(-c3ccc(Cl)s3)[nH]c2n1`, the TGI in test [1] is greater than 76.2 µM; in test [2], greater than 80.4 µM; in test [3] it was greater than 100 µM; in test [4] it was greater than 100 µM; in test [5] it was greater than 100 µM; in test [6], greater than 81.6 µM. For the same compound, the TGI in test [8] and in [7] was greater than 100 µM in each case.
`CC(C)CNc1nc2ncnc(N)c2[nH]1`: the TGI in test [2], in [3], in [4], in test [5], in test [6] and in test [8] was greater than 100 µM each time. In addition, the TGI in test [7] and in test [9] was greater than 100 µM throughout.
For `COC(=O)C1CCC(=S)N1C(=O)c1ccccc1` (stereo not given), the TGI in test [2], in [4], in test [5], in test [6], in test [8] and in test [9] was greater than 100 µM each time.
As for `OCC(O)C(O)C(O)C(O)c1nc2ccc(Cl)cc2[nH]1` (stereo not given), the TGI in test [2], in test [3], in [4], in test [5], in test [6] and in test [8] was greater than 100 µM in each case. The TGI in [7] and in test [9] was greater than 100 µM each time.
Turning to `CCCCC(=O)c1c(O)nc2sccn2c1=O`, the TGI in [1], in [3], in [4], in test [5], in test [6] and in test [8] was greater than 10 µM in each case. Besides, the TGI in test [7] and in test [9] was greater than 10 µM in each case.
`Cc1cc(F)ccc1S(=O)(=O)Nc1cc(-c2c(O)ccc3ccccc23)c(O)c2ccccc12`: the GI50 in test [1] was 3.21 µM; in [3], 2.91 µM; in [4], 3.26 µM; in [5], 3.18 µM; in [6], 3.4 µM; in test [8], 4.55 µM. In addition, in test [7], the GI50 is 2.48 µM. Moreover, the TGI in test [1] was 19.3 µM; in test [3] it was 10.8 µM; in test [4], 16.6 µM; in test [5], 10.9 µM; in [6] it was 14.3 µM; in test [8], 17.4 µM. In test [7], this compound had a TGI of 11.8 µM.
For `CC(=C(c1ccccc1)c1ccccc1)N1C(=O)CC(=O)N1C`, the TGI in test [3] was 31.2 µM; in test [4], 78.2 µM; in [5] it was greater than 100 µM; in test [6], greater than 100 µM; in test [8], greater than 100 µM; in [7], greater than 100 µM. For the same compound, the TGI in test [9] is greater than 100 µM.
As for `CC(=O)OCC1OC(SC2=N/C(=C\c3ccc(Br)s3)C(=O)N2CN2CCOCC2)C(OC(C)=O)C(OC(C)=O)C1OC(C)=O` (stereo not given), the TGI is 34.8 µM in test [1]; 36.5 µM in test [2]; 26.8 µM in test [3]; greater than 100 µM in test [5]; 81.9 µM in [6]; 72.1 µM in test [8]. The figures for the TGI in [7] and in [9] were 38.9 µM and 47.7 µM, respectively.
With `N#CC1(C#N)NC(c2cccs2)C(C#N)(C#N)NC1c1cccs1` (stereo not given), the TGI in test [1] was 77.3 µM; in test [2] it was greater than 100 µM; in [3], 37.3 µM; in test [4], 64.3 µM; in test [5], greater than 100 µM; in [6] it was greater than 100 µM. Also, the TGI in test [8] is 92.6 µM; in test [7], greater than 100 µM.
As for `OC1(c2ccccc2)CCN(Cc2c[nH]c3ccccc23)CC1`, the TGI in test [2], in test [3], in [4], in test [5], in test [6] and in [8] was greater than 100 µM each time. Further, the TGI in test [7] and in [9] was greater than 100 µM throughout.
Turning to `CC(NC(=O)C(NC(=O)CNC(=O)OC(C)(C)C)C(C)C)C(=O)Oc1c(Cl)c(Cl)c(Cl)c(Cl)c1Cl` (stereo not given), the TGI is greater than 100 µM in [1]; 32.5 µM in test [3]; greater than 100 µM in test [4]; 61.3 µM in [5]; 65.2 µM in test [6]; 31.6 µM in test [8]. For the same compound, the TGI in test [7] was 60 µM; in [9] it was greater than 100 µM.
In the case of `C[n+]1cccc2c(=O)c3ccccc3oc21`, the TGI in [1], in test [3], in test [4], in [5], in test [6] and in test [8] was greater than 100 µM each time. For the same compound, the TGI in [7] and in test [9] was greater than 100 µM each time.
Turning to `CSCCC(N)C(=O)NCCNc1ccc(NCCNC(=O)C(N)CCSC)c2c1C(=O)c1ccccc1C2=O` (stereo not given), the TGI in [1] amounted to 2.85 µM; in test [2] it was 1.89 µM; in test [3], 2.54 µM; in test [5], 4.59 µM; in test [6] it was 4.55 µM; in test [8], 5.61 µM. Further, the TGI in [7] came out at 3.83 µM; in test [9], 4.23 µM.
Take `NCCCN(CCCN(C(=O)Nc1ccccc1)c1ccccc1)C(=O)Nc1ccccc1`: the TGI in [1] was greater than 100 µM; in [2], greater than 100 µM; in test [3] it was 56.6 µM; in test [4], greater than 100 µM; in test [6], greater than 100 µM; in [8], greater than 100 µM. The TGI in [7] is 52.3 µM; in test [9], greater than 100 µM.
`O=c1cc(N2CCCC2)[nH]c(=O)n1Cc1ccccc1`: the TGI in [1], in [2], in [3], in test [4], in [5] and in [8] was greater than 100 µM throughout. The TGI in test [7] was greater than 100 µM.
On to `C[C@H](NC(=O)C(Cc1ccccc1)(Cc1ccc(O)cn1)NC(=O)c1ccccc1)c1ccccc1` (stereo not given in full), for which the TGI was 31.3 µM in [2]; 29.7 µM in test [3]; greater than 100 µM in [4]; 37.3 µM in test [5]; 39.1 µM in [6]; 37.4 µM in test [8]. In addition, the TGI in [7] was found to be 59.3 µM; in test [9], 30.7 µM.
Consider `CCNCCCn1c2c(c3ccc(Cl)cc3c1=O)C(=O)c1cc(OC)cnc1-2`, for which the GI50 in test [4] was 0.0239 µM; in test [5], 1.15 µM; in [6] it was 0.33 µM; in test [8], 1.48 µM; in [7], 0.0316 µM. The TGI came to 1.75 µM in test [4]; 2.55 µM in test [5]; 2.04 µM in [6]; 3.31 µM in [8]; 1.76 µM in test [7].
`Cc1cc(-c2nc3cc(F)ccc3s2)ccc1NC(=O)[C@@H](N)CCCCN`: the TGI in [1] came out at 3.52 µM; in test [2], 7.29 µM; in test [3], 3.62 µM; in test [5], 3.69 µM; in test [6], 22.6 µM; in test [8], 17 µM. Besides, the TGI in test [7] was 6.04 µM; in test [9], 3.27 µM.
